# Laboratory results: patent US9409870B2, “Compounds” (CHIESI FARMACEUTICI S.p.A., priority 2014, dated 2016)
# pIC50: −log10 of the molar value. Where a name gives a salt, the structure may show the parent alone.
# Molecular target: T1, human neutrophil elastase (HNE) (Homo sapiens, UniProt P08246)
# T1 construct: purchased Sigma E8140
# T1 sequence (P08246 30-247 limits assumed): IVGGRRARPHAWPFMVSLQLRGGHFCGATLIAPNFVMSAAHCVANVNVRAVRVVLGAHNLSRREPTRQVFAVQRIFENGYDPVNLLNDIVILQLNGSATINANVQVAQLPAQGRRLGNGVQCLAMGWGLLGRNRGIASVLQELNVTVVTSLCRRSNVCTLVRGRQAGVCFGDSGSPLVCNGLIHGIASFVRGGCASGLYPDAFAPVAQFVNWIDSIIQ
# Assay: HNE enzyme activity assay (fluorogenic peptide substrate MeOSuc-Ala-Ala-Pro-Val-AMC)
# Assay type: biochemical
# Conditions: human leukocyte elastase 0.00072 U/mL, substrate 100 μM, 25° C., 30 minutes, pH 7.5; at least two separate experiments; read-out: FINE inhibition (HNE enzyme inhibition, IC50 values)
# Protocol: Compounds of this invention were tested for potency in a human neutrophil elastase (HNE) enzyme activity assay.
# Assays were performed in 96-well plates in a total assay volume of 100 μL. The final concentration of elastase enzyme (human leukocyte elastase, Sigma E8140) was 0.00072 U/mL. The peptide substrate (MeOSuc-Ala-Ala-Pro-Val-AMC, Calbiochem #324740) was used at a final concentration of 100 μM. The final concentration of DMSO was 1% in the assay buffer (0.05M Tris.HCl, 0.1M NaCl, 0.1M CaCl2, 0.0005% brij-35, pH 7.5). The enzymatic reaction was started by addition of the enzyme and incubated at 25° C. for 30 minutes. After incubation, the reaction was stopped by addition of soybean trypsin inhibitor (Sigma T9003) at a final concentration of 50 μg/well. Fluorescence was measured using a Molecular Devices fluorescence plate reader using 380 nm excitation and 460 nm emission wavelengths.
# A dose response to each compound was performed and the effect of compound in each experiment was expressed as a percentage inhibition of the control enzyme fluorescence. Dose response curves were plotted and compound potency (IC50) was determined. Compounds were tested in at least two separate experiments.
row,Compound,pIC50
1,"CCNS(=O)(=O)n1c(-c2ccnn2-c2ccc(C#N)cc2)c(C)n(-c2cccc(C(F)(F)F)c2)c1=O [Example 33, 5-[2-(4-Cyano-phenyl)-2H-pyrazol-3-yl]-4-methyl-2-oxo-3-(3-trifluoromethylphenyl)-2,3-dihydro-imidazole-1-sulfonic acid ethylamide]",8.00 to 9.00
2,"Cc1c(-c2ccnn2-c2ccc(C#N)cc2)n(CC(=O)N2CCCC2)c(=O)n1-c1cccc(C(F)(F)F)c1 [Example 36, 4-{5-[5-Methyl-2-oxo-3-(2-oxo-2-pyrrolidin-1-yl-ethyl)-1-(3-trifluoromethylphenyl)-2,3-dihydro-1H-imidazol-4-yl]-pyrazol-1-yl}-benzonitrile]",8.00 to 9.00
3,"Cc1c(-c2nccn2-c2ccc(C#N)cc2)n(C(=O)NC2CCC2)c(=O)n1-c1cccc(C(F)(F)F)c1 [Example 61, 1-(4-Cyano-phenyl)-5′-methyl-2′-oxo-1′-(3-trifluoromethyl-phenyl)-1′,2′-dihydro-1H-[2,4′]biimidazolyl-3′-carboxylic acid cyclobutylamide]",> 9.00
4,"Cc1c(-c2ccnn2-c2ccc(C#N)cc2)n(C(=O)NCC2CCN(C)CC2)c(=O)n1-c1cccc(C(F)(F)F)c1 [Example 54, 5-[2-(4-Cyano-phenyl)-2H-pyrazol-3-yl]-4-methyl-2-oxo-3-(3-trifluoromethyl-phenyl)-2,3-dihydro-imidazole-1-carboxylic acid (1-methyl-piperidin-4-ylmethyl)-amide]",8.00 to 9.00
5,"CCCCn1c(-c2ccnn2-c2ccc(C#N)cc2)c(C)n(-c2cccc(C(F)(F)F)c2)c1=O [Example 26, 4-(5-{3-Butyl-5-methyl-2-oxo-1-[3-(trifluoromethyl)phenyl]-2,3-dihydro-1H-imidazol-4-yl}-1H-pyrazol-1-yl)benzonitrile]",8.00 to 9.00
6,"Cc1c(-c2ccnn2-c2ccc(C#N)cc2)n(C(=O)NCc2ccn(C)n2)c(=O)n1-c1cccc(C(F)(F)F)c1 [Example 17, 5-[1-(4-Cyanophenyl)-1H-pyrazol-5-yl]-4-methyl-N-[(1-methyl-1H-pyrazol-3-yl)methyl]-2-oxo-3-[3-(trifluoromethyl)phenyl]-2,3-dihydro-1H-imidazole-1-carboxamide]",> 9.00
7,"Cc1c(-c2ncnn2-c2ccc(C#N)cc2)n(C(=O)NC2CCCC2)c(=O)n1-c1cccc(C(F)(F)F)c1 [Example 63, 5-[2-(4-Cyano-phenyl)-2H-[1,2,4]triazol-3-yl]-4-methyl-2-oxo-3-(3-trifluoromethyl-phenyl)-2,3-dihydro-imidazole-1-carboxylic acid cyclopentylamide]",> 9.00
8,"Cc1c(-c2ccnn2-c2ccc(C#N)cc2)n(CC(=O)N2CCN(C)CC2)c(=O)n1-c1cccc(C(F)(F)F)c1 [Example 38, 4-{5-[5-Methyl-3-[2-(4-methyl-piperazin-1-yl)-2-oxo-ethyl]-2-oxo-1-(3-trifluoromethyl-phenyl)-2,3-dihydro-1H-imidazol-4-yl]-pyrazol-1-yl}-benzonitrile]",8.00 to 9.00
9,"Cc1c(-c2ccnn2-c2ccc(C#N)cc2)n(CC(=O)NCCCN(C)C)c(=O)n1-c1cccc(C(F)(F)F)c1 [Example 39, 2-[5-[2-(4-Cyano-phenyl)-2H-pyrazol-3-yl]-4-methyl-2-oxo-3-(3-trifluoromethyl-phenyl)-2,3-dihydro-imidazol-1-yl]-N-(3-dimethylaminopropyl)-acetamide formic acid salt]",7.30 to 8.00
10,"Cc1c(-c2ccnn2-c2ccc(C#N)cc2)n(C(=O)NCc2ccncc2)c(=O)n1-c1cccc(C(F)(F)F)c1 [Example 51, 5-[2-(4-Cyano-phenyl)-2H-pyrazol-3-yl]-4-methyl-2-oxo-3-(3-trifluoromethyl-phenyl)-2,3-dihydro-imidazole-1-carboxylic acid (pyridin-4-ylmethyl)-amide]",> 9.00
11,"Cc1c(-c2ccnn2-c2ccc(C#N)cc2)n(C(=O)NC2CCC2)c(=O)n1-c1cccc(C(F)(F)F)c1 [Example 41, 5-[2-(4-Cyano-phenyl)-2H-pyrazol-3-yl]-4-methyl-2-oxo-3-(3-trifluoromethyl-phenyl)-2,3-dihydro-imidazole-1-carboxylic acid cyclobutylamide]",> 9.00

# Continued, values first:
row,pIC50,Compound
1,8.00 to 9.00,"Cc1c(-c2ccnn2-c2ccc(C#N)cc2)n(C(=O)NCC[N+](C)(C)C)c(=O)n1-c1cccc(C(F)(F)F)c1 [Example 25, Benzenesulfonate 2-[({5-[1-(4-cyanophenyl)-1H-pyrazol-5-yl]-4-methyl-2-oxo-3-[3-(trifluoromethyl)phenyl]-2,3-dihydro-1H-imidazol-1-yl}carbonyl)amino]-N,N,N-trimethylethanaminium]"
2,8.00 to 9.00,"Cc1c(-c2ccnn2-c2ccc(C#N)cc2)n(C(=O)NCCC[N+](C)(C)C)c(=O)n1-c1cccc(C(F)(F)F)c1 [Example 24, Benzenesulfonate 3-[({5-[1-(4-cyanophenyl)-1H-pyrazol-5-yl]-4-methyl-2-oxo-3-[3-(trifluoromethyl)phenyl]-2,3-dihydro-1H-imidazol-1-yl}carbonyl)amino]-N,N,N-trimethylpropan-1-aminium]"
3,8.00 to 9.00,"Cc1c(-c2ccnn2-c2ccc(C#N)cc2)n(C(=O)NCCN(C)C)c(=O)n1-c1cccc(C(F)(F)F)c1 [Example 12, 5-[1-(4-Cyanophenyl)-1H-pyrazol-5-yl]-N-[2-(dimethylamino)ethyl]-4-methyl-2-oxo-3-[3-(trifluoromethyl)phenyl]-2,3-dihydro-1H-imidazole-1-carboxamide]"
4,> 9.00,"CCNC(=O)n1c(-c2ccnn2-c2ccc(C#N)cc2)c(C)n(-c2cccc(C(F)(F)F)c2)c1=O [Example 6, 5-[1-(4-Cyanophenyl)-1H-pyrazol-5-yl]-N-ethyl-4-methyl-2-oxo-3-[3-(trifluoromethyl)phenyl]-2,3-dihydro-1H-imidazole-1-carboxamide]"
5,7.30 to 8.00,"CCN(C)C(=O)n1c(-c2ccnn2-c2ccc(C#N)cc2)c(C)n(-c2cccc(C(F)(F)F)c2)c1=O [Example 21, 5-[1-(4-Cyanophenyl)-1H-pyrazol-5-yl]-N-ethyl-N,4-dimethyl-2-oxo-3-[3-(trifluoromethyl)phenyl]-2,3-dihydro-1H-imidazole-1-carboxamide]"
